Measured values from the SangsterLogP compilation.

Key:
[1] = not given; remark: listed apart in the source

Structure (SMILES)	logP	also measured
CCOP(=O)(SC(C)CC)SC(C)CC (configuration not stated)	3.9	
CCSC(C)CC1CC(=O)C(/C(CC)=N/OC/C=C/Cl)=C(O)C1 (configuration not stated)	4.19	
CC(C)N(Cc1ccccc1)C(=O)C(C)(C)C	3	
CN1CSC(=S)N(C)C1		logD ([1]; pH 7.0): 1.4
CC(C)=CC1C(C(=O)OCN2C(=O)C3=C(CCCC3)C2=O)C1(C)C (configuration not stated)	4.49	
O=C(NC(=O)c1c(F)cccc1F)Nc1cc(Cl)c(OC(F)(F)C(F)C(F)(F)F)cc1Cl (configuration not stated)		logP [1]: 5.12
CCOP(=S)(OCC)Oc1nc(Cl)n(C(C)C)n1	2.99	
COP(=S)(OC)Oc1ccc(C#N)cc1	2.65	
Cc1cc(C)nc(Nc2ccccc2)n1		logD ([1]; pH 6.1): 2.84
CCOP(=S)(OCC)Oc1ccc(=O)n(-c2ccccc2)n1	3.2	
CC1=NNC(=O)N(/N=C/c2cccnc2)C1	-0.18	
CC1=C(C)S(=O)(=O)CCS1(=O)=O		logP [1]: -0.17
CCS(=O)(=O)c1cccnc1S(=O)(=O)NC(=O)Nc1nc(OC)cc(OC)n1		logD ([1]; pH 5.0): 0.29
CCCCOC(=O)[C@@H](C)Oc1ccc(Oc2ccc(C(F)(F)F)cn2)cc1	4.5	
CCOc1ccc(C2(C(=O)OC(C#N)c3cccc(Oc4ccccc4)c3)CC2(Cl)Cl)cc1 (configuration not stated)	4.19	
C[C@@H](Oc1ccc(Oc2ccc(C#N)cc2F)cc1)C(=O)O	3.31	
CCOC(=O)CCN(SN(C)C(=O)Oc1cccc2c1OC(C)(C)C2)C(C)C		logD ([1]; pH 7.0): 4.3
O=C(Nc1ccccc1)Nc1ccnc(Cl)c1		logP [1]: 3.2
CCC(=O)Nc1ccc(Cl)c(Cl)c1	3.3	
Cl/C=C\CCl	2.06	
COC(=O)c1c(Cl)c(Cl)c(C(=O)OC)c(Cl)c1Cl	4.28	
O=S(=O)(c1ccc(Cl)cc1)c1cc(Cl)c(Cl)cc1Cl	4.61	
CN(C)C(=O)Nc1ccc(-n2nc(C(C)(C)C)oc2=O)c(Cl)c1	2.51	
CCS(=O)(=O)Oc1ccc2c(c1)C(C)(C)CO2		logP [1]: 2.41
CNC(=O)ON=C(C)C(C)S(C)(=O)=O (configuration not stated)		logD ([1]; pH 6.5): 1.11

Structure (SMILES)	logP	also measured
CCOC(=O)c1cn2nc(OP(=S)(OCC)OCC)cc2nc1C	3.8	
CCOC(=O)C(Cl)Cc1cc(-n2nc(C)n(C(F)F)c2=O)c(F)cc1Cl (configuration not stated)	3.36	
CCN(CC)C(=O)SCc1ccccc1Cl	3.43	
C=CCNC(=O)CN(CC=C)C(=O)C(Cl)Cl	1	
CC(C)(C)C(O)/C(=C\c1ccc(Cl)cc1)n1cncn1 (configuration not stated)		logP [1]: 3.67
C/C(=N\C#N)N(C)Cc1ccc(Cl)nc1		logP [1]: 0.8
CC(C)=CC1C(C(=O)OCc2coc(Cc3ccccc3)c2)C1(C)C (configuration not stated)	5.4	
CC1(C)CCC(Cc2ccc(Cl)cc2)C1(O)Cn1cncn1 (configuration not stated)	3.93	
CCCCC(CC)N1C(=O)C2C3C=CC(C3)C2C1=O (configuration not stated)	3.8	
Nc1cnn(-c2ccccc2)c(=O)c1Cl	1.19	
CCOc1nc(C(Cl)(Cl)Cl)ns1	3.37	
CC(Oc1ccc(Oc2ncc(Cl)cc2Cl)cc1)C(=O)N1CCCO1 (configuration not stated)	3.36	
CCC1OCC(COc2ccc(Oc3ccccc3)cc2)O1 (configuration not stated)	4.3	
COP(=O)(OC)OC1=C(Cl)C2C=CCC12 (configuration not stated)	2.32	
CCNc1nc(Cl)nc(NCC)n1	2.1	
Clc1ccccc1-c1nnc(-c2ccccc2Cl)nn1	3.1	
CCCOC(=O)c1ccc(C(=O)OCCC)nc1	3.57	
CCCCOC(=O)N(C)SN(C)C(=O)Oc1cccc2c1OC(C)(C)C2	4.6	
CC1COc2ccccc2N1C(=O)C(Cl)Cl (configuration not stated)	2.7	
C/C=C/C(=O)Oc1c(C(C)CCCCCC)cc([N+](=O)[O-])cc1[N+](=O)[O-] (configuration not stated)	4.54	
FC(F)C(F)(F)OCC(Cn1cncn1)c1ccc(Cl)cc1Cl (configuration not stated)		logP [1]: 3.53
CCOCN(C(=O)CCl)c1c(C)cccc1CC	3.03	
CCOC(=O)[C@@H](C)Oc1ccc(Oc2nc3ccc(Cl)cc3o2)cc1	4.58	
CNC(=O)CSP(=O)(OC)OC		logP [1]: -0.75
CC(C)C1CCC(Cc2ccc(Cl)cc2)C1(O)Cn1cncn1 (configuration not stated)	4.21	

Structure (SMILES)	logP	also measured
C=CCN(CC=C)C(=O)C(Cl)Cl	1.84	
O=C1C(Cl)=C(Cl)C(=O)N1c1ccc(F)cc1	2.3	
COC(=O)c1c(C(F)F)nc(C(F)(F)F)c(C2=NCCS2)c1CC(C)C		logP [1]: 3.89
Cc1cnc(C2=NC(C)(C(C)C)C(=O)N2)c(C(=O)O)c1 (configuration not stated)	0.39	
CC(C)c1cc(Oc2ccccc2)cc(C(C)C)c1NC(=S)NC(C)(C)C	5.76	
CCSCCSP(=S)(OC)OC	3.46	
NC(=O)c1nc(-c2ccccc2)n(-c2ccc(Cl)c(COCC(F)(F)C(F)(F)F)c2)n1	3.27	
CCOP(=S)(OCC)OC(Cl)C(Cl)(Cl)Cl (configuration not stated)		logP [1]: 4.59
COc1ccsc1CN(C(=O)CCl)c1c(C)cccc1C		logP [1]: 3.53
O=C1c2ccccc2C(=O)N1SC(Cl)(Cl)Cl	3.11	
C#CCOS(=O)OC1CCCCC1Oc1ccc(C(C)(C)C)cc1 (configuration not stated)	3.73	
O=c1c2cc(F)ccc2nc(-n2cncn2)n1-c1ccc(Cl)cc1Cl		logD ([1]; pH 5.6): 3.24
CC(C)OC(=O)C(C(=O)OC(C)C)=C1SCCS1	3.3	
CC(C)N1C(=O)N(c2ccccc2)CS/C1=N\C(C)(C)C	4.3	
Cc1cc(C2CC2)nc(Nc2ccccc2)n1		logD ([1]; pH 5.0): 3.9
CCSCc1ccccc1OC(=O)NC	2.04	
COC(C)(C)CCCC(C)C/C=C/C(C)=C/C(=O)OC(C)C (configuration not stated)	5.21	
CC(C)OC(=O)C(O)(c1ccc(Br)cc1)c1ccc(Br)cc1	5.4	
COc1ccc(/C(=C\C(=O)N2CCOCC2)c2ccc(Cl)cc2)cc1OC	2.73	
CC(Oc1ccc(Oc2cnc3cc(Cl)ccc3n2)cc1)C(=O)OCC1CCCO1 (configuration not stated)		logP [1]: 4.32
CCOCCOC(=O)C(C)Oc1ccc(Oc2ncc(C(F)(F)F)cc2Cl)cc1 (configuration not stated)	4.33	
CCOC1Oc2ccc(OS(C)(=O)=O)cc2C1(C)C (configuration not stated)	2.7	
CCCCCCCCn1sccc1=O		logP [1]: 2.45
CCCN(CCC)c1c([N+](=O)[O-])cc(C(F)(F)F)c(N)c1[N+](=O)[O-]		logP [1]: 4.1
COCC(C)N(C(=O)CCl)c1c(C)csc1C (configuration not stated)	2.15	

Structure (SMILES)	logP	also measured
CNC(=O)ON=C(C)C(C)SC (configuration not stated)	1.11	
O=C(NC(=O)c1ccccc1Cl)Nc1ccc(OC(F)(F)F)cc1	4.91	
CCCN(CCC)C(=O)SCc1ccccc1		logP [1]: 4.65
COC(=O)C(C)N(C(=O)c1ccco1)c1c(C)cccc1C (racemic)	2.7	
CC1(C)CC/C(=C\c2ccc(Cl)cc2)C1(O)Cn1cncn1 (configuration not stated)	3.29	
O=[N+]([O-])c1ccc(NS(=O)(=O)c2ccc(Cl)c(C(F)(F)F)c2)c(Cl)c1	2.4	
CCCSP(=O)(OCC)Oc1ccc(Br)cc1Cl (configuration not stated)	4.44	
C=CCCCOC(=O)C(CC)N(Cc1ccco1)C(=O)n1ccnc1 (configuration not stated)	3	
CC(C)C(O)(c1ccc(OC(F)(F)F)cc1)c1cncnc1 (configuration not stated)		logD ([1]; pH 7.0): 3.34
CC1(C)CON(Cc2ccccc2Cl)C1=O	2.5	
C#CCOC(=O)[C@@H](C)Oc1ccc(Oc2ncc(Cl)cc2F)cc1		logP [1]: 3.9
C/C=C\COCN(C(=O)CCl)c1c(CC)cccc1CC	3.51	
O=C(Nc1ccccc1)Nc1cnns1		logD ([1]; pH 7.3): 1.77
CON(C)C(=O)Nc1ccc(Br)cc1	2.41	
COc1ccc(C(O)(c2cncnc2)C2CC2)cc1 (configuration not stated)		logD ([1]; pH 6.5): 1.91
CCSCCSP(=O)(OC)OC	1.32	
O=C1C2CC=CCC2C(=O)N1SC(Cl)(Cl)Cl (configuration not stated)	2.78	
COP(=S)(OC)Oc1ccc(Sc2ccc(OP(=S)(OC)OC)cc2)cc1	4.91	
CC1(C)C(C=C(Cl)Cl)C1C(=O)OC(C#N)c1ccc(F)c(Oc2ccccc2)c1 (configuration not stated)	5.93	
CCCCCOC(=O)COc1cc(N2C(=O)C3=C(CCCC3)C2=O)c(F)cc1Cl	4.99	
COCC(=O)N(c1c(C)cccc1C)N1CCOC1=O		logP [1]: 0.73
CC(C1CC1)C(O)(Cn1cncn1)c1ccc(Cl)cc1 (configuration not stated)		logD ([1]; pH 7.0): 2.91
CCN(CC)C(=O)C(C)Oc1cccc2ccccc12 (configuration not stated)	3.3	
CCOC(=O)C1(C)OC(=O)N(c2cc(Cl)cc(Cl)c2)C1=O (configuration not stated)	3.3	
CCN(Cc1c(F)cccc1Cl)c1c([N+](=O)[O-])cc(C(F)(F)F)cc1[N+](=O)[O-]		logP [1]: 5.45

Structure (SMILES)	logP	also measured
CCOC(=O)Cn1c(=O)sc2cccc(Cl)c21		logP [1]: 2.5
CC1(C)OC(c2ccco2)CN1C(=O)C(Cl)Cl (configuration not stated)		logP [1]: 2.12
C#CCC1=C(C)C(OC(=O)C2C(C=C(C)C)C2(C)C)CC1=O (configuration not stated)		logP [1]: 4.49
CC1(C)[C@H](C(=O)O[C@H](C#N)c2cccc(Oc3ccccc3)c2)[C@@H]1C(Br)C(Br)(Br)Br (some centres not stated)	5	
CC1(C)[C@H](C(=O)O[C@H](C#N)c2cccc(Oc3ccccc3)c2)[C@@H]1/C=C\C(=O)OC(C(F)(F)F)C(F)(F)F		logP [1]: 5.26
CCNP(=S)(OC)O/C(C)=C/C(=O)OC(C)C (configuration not stated)	3.82	
Clc1ccc(C2(Cn3cncn3)CC(Br)CO2)c(Cl)c1 (configuration not stated)		logP [1]: 3.24
CC(C)NC(=O)N1CC(=O)N(c2cc(Cl)cc(Cl)c2)C1=O	3	
O=C(Nc1ccc(Cl)cc1C(O)c1ccccc1)c1ccncc1 (configuration not stated)	3.13	
CN(C)C(=O)Nc1cc(C(C)(C)C)on1	1.98	
O=CNC(N1CCN(C(NC=O)C(Cl)(Cl)Cl)CC1)C(Cl)(Cl)Cl (configuration not stated)	2.2	
Cc1ccc2nc3sc(=O)sc3nc2c1		logP [1]: 3.78
CCCCC(CC)CN1C(=O)C2C3C=CC(C3)C2C1=O (configuration not stated)	3.7	
COCCN(C(=O)CCl)c1c(C)cccc1C	2.2	
O=c1oc2ccccc2c(O)c1C1CC(c2ccc(OCc3ccc(C(F)(F)F)cc3)cc2)Cc2ccccc21 (configuration not stated)	4.7	
COc1cc(OC)nc(NC(=O)NS(=O)(=O)N(C)S(C)(=O)=O)n1		logD ([1]; pH 2.0): 1.63
OC1(c2ccc(Cl)cc2)CCCCCC1n1cncn1 (configuration not stated)	3.02	
CN(C)C(=O)Nc1ccc(Cl)c(Cl)c1	2.85	
CCCCCC(C)OC(=O)COc1ccc(Cl)c2cccnc12 (configuration not stated)		logP [1]: 5.03
[O-][n+]1nc(-n2ccnc2)nc2ccc(Cl)cc21		logP [1]: 2.04
CCOC(=O)CSc1nc(C(C)(C)C)nn1C(=O)N(C)C		logD ([1]; pH 7.0): 2.69
COc1cc(OC)n2nc(S(=O)(=O)Nc3c(Cl)ccc(C)c3Cl)nc2n1		logD ([1]; pH 7.0): 2.46
